Source: paper PMC9869559, “The Weimberg pathway: an alternative for Myceliophthora thermophila to utilize D-xylose” (Biotechnology for Biofuels and Bioproducts, 2023)

Columns and labels:
[1] = target: T1, Mtxyd1 (native D-xylose dehydrogenase, XDH) (Thermothelomyces thermophilus, UniProt G2QN15); experiment: NADP+ reduction at […] nm, crude mycelial extract of overexpressing strain; format: biochemical; conditions: 100 mM D-xylose, 2 mM NADP+, 2 mM MgCl2, 100 mM Tris-HCl pH 8.0, 30 °C
T1 construct: gene MYCTH_112471; full-length native gene from cDNA, inserted at pck locus of M. thermophila JG207 delta-Mtxyl1 (DF1310); crude mycelial extract
T1 sequence (G2QN15 1-395): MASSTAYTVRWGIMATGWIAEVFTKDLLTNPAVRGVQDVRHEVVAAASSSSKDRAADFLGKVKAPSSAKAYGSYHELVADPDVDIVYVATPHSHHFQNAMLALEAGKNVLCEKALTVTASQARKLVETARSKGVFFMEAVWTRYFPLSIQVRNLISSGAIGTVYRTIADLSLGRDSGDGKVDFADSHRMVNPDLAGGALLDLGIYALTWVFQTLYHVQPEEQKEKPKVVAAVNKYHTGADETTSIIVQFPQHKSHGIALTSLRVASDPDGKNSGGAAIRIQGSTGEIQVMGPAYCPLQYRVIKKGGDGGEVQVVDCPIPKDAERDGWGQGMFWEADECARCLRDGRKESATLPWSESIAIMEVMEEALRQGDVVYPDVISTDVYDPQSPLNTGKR

[2] = target: T2, Trxyd1 (D-xylose dehydrogenase, XDH) (Trichoderma reesei, UniProt G0R8G7); experiment: NAD+ or NADP+ reduction at […] nm, crude mycelial extract of overexpressing strain; format: biochemical; conditions: 100 mM D-xylose, 2 mM NAD+ or NADP+, 2 mM MgCl2, 100 mM Tris-HCl pH 8.0, 30 °C
T2 construct: gene TRIREDRAFT_53673; full-length gene from cDNA, inserted at pck locus of M. thermophila JG207 delta-Mtxyl1 (DF1309); crude mycelial extract
T2 sequence (G0R8G7 1-391): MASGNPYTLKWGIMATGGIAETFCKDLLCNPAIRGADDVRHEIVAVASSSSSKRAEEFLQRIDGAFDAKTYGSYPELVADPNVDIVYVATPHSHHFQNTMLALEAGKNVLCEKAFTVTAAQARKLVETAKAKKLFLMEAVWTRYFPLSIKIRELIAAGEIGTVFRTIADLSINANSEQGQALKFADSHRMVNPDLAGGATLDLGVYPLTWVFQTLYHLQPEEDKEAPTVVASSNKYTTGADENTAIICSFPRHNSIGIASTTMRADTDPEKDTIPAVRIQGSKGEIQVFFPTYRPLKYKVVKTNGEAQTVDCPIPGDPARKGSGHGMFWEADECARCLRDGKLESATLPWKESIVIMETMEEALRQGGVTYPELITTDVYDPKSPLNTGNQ

Compound | specific activity [1] | specific activity [2]
OC1OC[C@@H](O)[C@H](O)[C@H]1O (stereo partly drawn) [D-xylose] | XDH encoded by endogenous Mtxyd1 owned the highest activity | The enzymatic activity of XDH in strains DF1309 and DF1310 was verified
NC(=O)c1ccc[n+]([C@@H]2O[C@H](COP(=O)(O)OP(=O)(O)OC[C@H]3O[C@@H](n4cnc5c(N)ncnc54)[C@H](OP(=O)(O)O)[C@@H]3O)[C@@H](O)[C@H]2O)c1 [NADP^+] | When using NADP^+ as a cofactor, XDH encoded by endogenous Mtxyd1 owned the highest activity | –
